Data reported in ChEMBL document CHEMBL5465560, “Selectivity Literature for EUbOPEN Chemogenomic Library” (2024).

What was measured:
[1] = target: Dual specificity protein kinase CLK2 (Homo sapiens, UniProt P49760); assay: Selectivity interaction (KinomeScan (DiscoverX)) EUB0001049a CLK2; conditions: at 1 µM
[2] = target: T1, Serine/threonine-protein kinase haspin (Homo sapiens) (UniProt Q8TF76); assay: Selectivity interaction (KinomeScan (DiscoverX)) EUB0000666a GSG2; conditions: at 10 µM
T1 sequence (whole entry): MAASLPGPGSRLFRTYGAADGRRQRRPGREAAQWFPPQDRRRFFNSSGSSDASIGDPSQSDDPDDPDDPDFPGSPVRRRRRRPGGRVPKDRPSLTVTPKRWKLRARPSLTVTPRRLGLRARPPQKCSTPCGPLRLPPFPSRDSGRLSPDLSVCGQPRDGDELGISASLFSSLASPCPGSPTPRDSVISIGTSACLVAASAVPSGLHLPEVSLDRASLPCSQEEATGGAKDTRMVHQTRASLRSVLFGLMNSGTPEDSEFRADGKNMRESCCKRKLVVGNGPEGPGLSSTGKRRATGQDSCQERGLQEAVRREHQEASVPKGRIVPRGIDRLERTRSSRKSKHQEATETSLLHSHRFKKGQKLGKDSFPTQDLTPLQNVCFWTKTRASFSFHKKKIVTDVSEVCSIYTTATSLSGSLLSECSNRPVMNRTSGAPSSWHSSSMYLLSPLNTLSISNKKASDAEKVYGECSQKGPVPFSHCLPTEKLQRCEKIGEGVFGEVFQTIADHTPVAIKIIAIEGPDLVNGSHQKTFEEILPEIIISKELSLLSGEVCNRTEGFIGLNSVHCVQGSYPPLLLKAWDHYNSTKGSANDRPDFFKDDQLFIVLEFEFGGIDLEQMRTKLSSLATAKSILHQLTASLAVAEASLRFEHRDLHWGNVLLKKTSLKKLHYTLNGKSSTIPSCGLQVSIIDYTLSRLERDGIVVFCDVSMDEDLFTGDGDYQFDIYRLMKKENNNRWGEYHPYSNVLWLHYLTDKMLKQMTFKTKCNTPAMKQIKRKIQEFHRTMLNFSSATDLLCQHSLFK

[3] = target: T2, Aurora kinase A (Homo sapiens) (UniProt O14965); assay: Selectivity interaction (Kinase panel (DSF assay)) EUB0001559a STK6
T2 sequence (whole entry): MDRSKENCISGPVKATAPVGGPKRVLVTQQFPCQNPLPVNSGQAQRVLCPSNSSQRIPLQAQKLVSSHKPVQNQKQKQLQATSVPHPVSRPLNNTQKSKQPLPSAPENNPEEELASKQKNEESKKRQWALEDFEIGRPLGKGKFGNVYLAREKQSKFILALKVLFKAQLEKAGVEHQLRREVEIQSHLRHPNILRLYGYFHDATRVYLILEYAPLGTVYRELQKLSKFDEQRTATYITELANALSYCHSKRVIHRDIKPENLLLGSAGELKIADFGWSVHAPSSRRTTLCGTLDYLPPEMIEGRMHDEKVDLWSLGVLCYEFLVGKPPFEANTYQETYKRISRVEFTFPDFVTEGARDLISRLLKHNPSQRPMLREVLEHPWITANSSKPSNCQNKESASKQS

[4] = target: Mitogen-activated protein kinase kinase kinase 20 (Homo sapiens) (UniProt Q9NYL2); assay: Selectivity interaction (Kinase panel (Invitrogen)) EUB0000639a MAP3K20; conditions: at 200 nM
Sequence of Mitogen-activated protein kinase kinase kinase 20 (Homo sapiens) (Q9NYL2 2-800 limits assumed): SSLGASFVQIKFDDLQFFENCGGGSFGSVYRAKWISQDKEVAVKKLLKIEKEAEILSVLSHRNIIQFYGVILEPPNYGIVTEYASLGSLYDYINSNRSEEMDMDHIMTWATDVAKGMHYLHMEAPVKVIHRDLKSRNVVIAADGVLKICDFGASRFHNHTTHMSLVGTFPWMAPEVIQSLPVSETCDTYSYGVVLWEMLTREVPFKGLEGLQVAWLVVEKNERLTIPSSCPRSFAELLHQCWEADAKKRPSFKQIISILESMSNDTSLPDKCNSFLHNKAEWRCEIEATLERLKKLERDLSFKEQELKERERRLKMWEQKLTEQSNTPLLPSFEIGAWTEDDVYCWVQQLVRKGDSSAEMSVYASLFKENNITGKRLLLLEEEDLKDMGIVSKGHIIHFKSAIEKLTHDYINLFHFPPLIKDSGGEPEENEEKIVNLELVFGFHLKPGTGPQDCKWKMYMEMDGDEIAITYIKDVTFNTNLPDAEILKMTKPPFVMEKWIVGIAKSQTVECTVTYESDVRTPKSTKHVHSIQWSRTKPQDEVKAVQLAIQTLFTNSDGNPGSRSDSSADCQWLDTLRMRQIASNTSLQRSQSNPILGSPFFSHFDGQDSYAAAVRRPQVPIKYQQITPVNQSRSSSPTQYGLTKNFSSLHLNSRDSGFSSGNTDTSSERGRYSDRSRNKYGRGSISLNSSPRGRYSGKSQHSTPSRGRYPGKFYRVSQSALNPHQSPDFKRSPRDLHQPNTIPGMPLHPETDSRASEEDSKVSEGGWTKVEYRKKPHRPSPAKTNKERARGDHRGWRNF

[5] = target: Receptor-type tyrosine-protein kinase FLT3 (Homo sapiens) (UniProt P36888); assay: Selectivity interaction (Kinase panel (Invitrogen)) EUB0000639a FLT3; conditions: at 200 nM
Sequence of Receptor-type tyrosine-protein kinase FLT3 (Homo sapiens) (P36888 whole entry): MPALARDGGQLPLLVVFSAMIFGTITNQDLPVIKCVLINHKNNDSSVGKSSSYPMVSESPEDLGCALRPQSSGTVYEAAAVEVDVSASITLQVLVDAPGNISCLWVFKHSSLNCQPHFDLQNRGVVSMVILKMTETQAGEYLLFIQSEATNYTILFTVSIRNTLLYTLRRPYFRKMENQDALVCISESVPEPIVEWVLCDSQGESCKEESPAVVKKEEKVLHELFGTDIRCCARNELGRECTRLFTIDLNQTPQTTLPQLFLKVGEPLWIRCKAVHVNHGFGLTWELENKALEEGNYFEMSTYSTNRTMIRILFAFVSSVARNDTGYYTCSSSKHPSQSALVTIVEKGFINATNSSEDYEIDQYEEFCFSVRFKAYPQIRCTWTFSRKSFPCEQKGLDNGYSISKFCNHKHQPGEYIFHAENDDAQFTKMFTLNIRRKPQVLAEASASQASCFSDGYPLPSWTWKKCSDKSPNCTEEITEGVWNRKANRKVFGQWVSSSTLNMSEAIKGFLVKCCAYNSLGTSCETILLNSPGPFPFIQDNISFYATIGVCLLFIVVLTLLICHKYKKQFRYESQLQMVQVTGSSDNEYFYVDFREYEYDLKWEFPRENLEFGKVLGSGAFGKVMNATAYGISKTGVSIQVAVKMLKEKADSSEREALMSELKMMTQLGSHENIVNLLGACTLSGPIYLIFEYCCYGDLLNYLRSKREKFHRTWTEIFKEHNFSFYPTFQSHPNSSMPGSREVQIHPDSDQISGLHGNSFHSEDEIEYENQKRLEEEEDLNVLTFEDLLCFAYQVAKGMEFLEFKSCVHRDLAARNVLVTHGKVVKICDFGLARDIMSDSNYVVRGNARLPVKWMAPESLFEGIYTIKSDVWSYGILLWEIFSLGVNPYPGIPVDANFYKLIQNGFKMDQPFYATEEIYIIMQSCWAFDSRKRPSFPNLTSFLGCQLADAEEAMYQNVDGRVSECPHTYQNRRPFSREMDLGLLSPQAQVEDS

[6] = system: Tyrosine-protein kinase ABL1 (Homo sapiens), P00519 [T315I]; assay: Selectivity interaction (KinomeScan (DiscoverX)) EUB0000092b ABL1; conditions: at 10 µM
[7] = target: T3, Interleukin-1 receptor-associated kinase 4 (Homo sapiens) (UniProt Q9NWZ3); assay: Selectivity interaction (Ambit KINOMEscan and KiNATiv profiling in Jurkat cells) EUB0000090b IRAK4; assay type: cell-based; conditions: at 1 µM
T3 sequence (whole entry): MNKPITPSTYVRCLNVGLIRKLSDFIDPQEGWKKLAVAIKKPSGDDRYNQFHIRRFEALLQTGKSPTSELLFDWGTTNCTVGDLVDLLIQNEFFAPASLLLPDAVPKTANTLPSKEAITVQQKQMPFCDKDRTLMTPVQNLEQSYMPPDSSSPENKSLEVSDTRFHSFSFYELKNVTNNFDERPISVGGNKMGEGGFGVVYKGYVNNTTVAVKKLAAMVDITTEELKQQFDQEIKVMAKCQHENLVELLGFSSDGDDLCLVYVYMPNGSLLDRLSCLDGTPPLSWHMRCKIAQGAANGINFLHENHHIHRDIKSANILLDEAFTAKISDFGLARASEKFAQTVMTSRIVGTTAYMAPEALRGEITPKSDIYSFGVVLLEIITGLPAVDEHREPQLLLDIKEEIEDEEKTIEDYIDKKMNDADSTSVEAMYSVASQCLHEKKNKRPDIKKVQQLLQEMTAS

[8] = target: T4, Serine/threonine-protein kinase Sgk3 (Homo sapiens) (UniProt Q96BR1); assay: Selectivity interaction (Ambit KINOMEscan and KiNATiv profiling in Jurkat cells) EUB0000090b SGK3; assay type: cell-based; conditions: at 1 µM
T4 sequence (whole entry): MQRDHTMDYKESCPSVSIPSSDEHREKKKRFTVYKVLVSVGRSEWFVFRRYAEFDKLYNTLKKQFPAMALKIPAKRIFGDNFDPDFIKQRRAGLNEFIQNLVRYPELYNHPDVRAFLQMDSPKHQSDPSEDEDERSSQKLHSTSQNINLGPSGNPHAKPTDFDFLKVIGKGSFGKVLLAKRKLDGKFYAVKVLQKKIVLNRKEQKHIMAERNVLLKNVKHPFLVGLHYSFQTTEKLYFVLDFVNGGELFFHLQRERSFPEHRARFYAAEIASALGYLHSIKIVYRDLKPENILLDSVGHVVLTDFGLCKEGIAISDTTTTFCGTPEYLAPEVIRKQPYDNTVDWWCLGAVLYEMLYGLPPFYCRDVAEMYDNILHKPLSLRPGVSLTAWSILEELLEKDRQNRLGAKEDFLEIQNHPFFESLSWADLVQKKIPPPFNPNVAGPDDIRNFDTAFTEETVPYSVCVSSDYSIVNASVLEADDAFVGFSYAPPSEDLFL

[9] = target: Serine/threonine-protein kinase PAK 4 (Homo sapiens, UniProt O96013); assay: Selectivity interaction (KinomeScan (DiscoverX)) EUB0001619a PAK4; conditions: at 1 µM
Sequence of Serine/threonine-protein kinase PAK 4 (O96013 whole entry, looked up): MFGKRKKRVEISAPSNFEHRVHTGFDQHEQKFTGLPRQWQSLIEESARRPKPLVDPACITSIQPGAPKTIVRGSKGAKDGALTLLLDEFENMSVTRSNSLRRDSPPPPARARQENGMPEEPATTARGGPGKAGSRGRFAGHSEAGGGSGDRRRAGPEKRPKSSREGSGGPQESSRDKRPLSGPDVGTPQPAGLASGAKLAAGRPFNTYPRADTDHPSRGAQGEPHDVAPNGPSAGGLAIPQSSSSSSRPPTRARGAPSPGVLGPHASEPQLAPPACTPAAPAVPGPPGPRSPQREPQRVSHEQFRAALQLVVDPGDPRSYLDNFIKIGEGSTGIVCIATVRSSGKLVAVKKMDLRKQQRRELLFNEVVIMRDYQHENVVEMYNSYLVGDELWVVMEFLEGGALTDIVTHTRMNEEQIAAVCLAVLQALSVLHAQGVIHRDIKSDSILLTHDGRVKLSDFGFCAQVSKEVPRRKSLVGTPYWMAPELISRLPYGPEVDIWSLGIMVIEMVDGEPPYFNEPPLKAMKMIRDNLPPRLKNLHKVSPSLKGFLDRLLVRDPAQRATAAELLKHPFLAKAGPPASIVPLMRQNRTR

[10] = target: Serine/threonine-protein kinase Nek7 (Homo sapiens) (UniProt Q8TDX7); assay: Selectivity interaction (ActivX KiNativ screen (ex vivo kinase selectivity in human PBMCs)) EUB0001619a NEK7; assay type: cell-based; conditions: PBMC, at 1 µM
Sequence of Serine/threonine-protein kinase Nek7 (Homo sapiens) (Q8TDX7 whole entry, looked up): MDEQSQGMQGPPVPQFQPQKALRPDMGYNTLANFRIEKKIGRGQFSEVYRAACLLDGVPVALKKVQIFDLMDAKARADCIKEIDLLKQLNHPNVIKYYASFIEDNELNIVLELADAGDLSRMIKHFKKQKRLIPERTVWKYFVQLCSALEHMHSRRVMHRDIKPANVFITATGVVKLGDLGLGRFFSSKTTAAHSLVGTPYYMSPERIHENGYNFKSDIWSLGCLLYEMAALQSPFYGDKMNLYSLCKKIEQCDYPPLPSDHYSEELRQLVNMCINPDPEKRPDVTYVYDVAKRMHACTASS

D(2) dopamine receptor = D(2) dopamine receptor (Homo sapiens, UniProt P14416); assay: Selectivity interaction (Panel of kinases, GPCRs, ion channels and transporters (enzymatic assay)) EUB0000266bCl DRD2
Sequence of D(2) dopamine receptor (P14416 whole entry): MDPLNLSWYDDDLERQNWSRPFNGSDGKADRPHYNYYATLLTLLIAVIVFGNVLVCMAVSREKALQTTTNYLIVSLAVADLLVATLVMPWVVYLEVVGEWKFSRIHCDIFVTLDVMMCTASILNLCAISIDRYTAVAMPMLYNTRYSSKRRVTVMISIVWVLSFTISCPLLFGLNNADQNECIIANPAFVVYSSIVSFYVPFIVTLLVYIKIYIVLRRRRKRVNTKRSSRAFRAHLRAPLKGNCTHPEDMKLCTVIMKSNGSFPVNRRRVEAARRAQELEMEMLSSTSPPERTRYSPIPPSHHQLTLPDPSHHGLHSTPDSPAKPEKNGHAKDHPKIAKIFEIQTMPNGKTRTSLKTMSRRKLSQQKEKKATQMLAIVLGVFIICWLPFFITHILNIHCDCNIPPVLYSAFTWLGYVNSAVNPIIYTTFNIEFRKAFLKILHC

Sequence of Dual specificity protein kinase CLK2 (P49760 whole entry, looked up): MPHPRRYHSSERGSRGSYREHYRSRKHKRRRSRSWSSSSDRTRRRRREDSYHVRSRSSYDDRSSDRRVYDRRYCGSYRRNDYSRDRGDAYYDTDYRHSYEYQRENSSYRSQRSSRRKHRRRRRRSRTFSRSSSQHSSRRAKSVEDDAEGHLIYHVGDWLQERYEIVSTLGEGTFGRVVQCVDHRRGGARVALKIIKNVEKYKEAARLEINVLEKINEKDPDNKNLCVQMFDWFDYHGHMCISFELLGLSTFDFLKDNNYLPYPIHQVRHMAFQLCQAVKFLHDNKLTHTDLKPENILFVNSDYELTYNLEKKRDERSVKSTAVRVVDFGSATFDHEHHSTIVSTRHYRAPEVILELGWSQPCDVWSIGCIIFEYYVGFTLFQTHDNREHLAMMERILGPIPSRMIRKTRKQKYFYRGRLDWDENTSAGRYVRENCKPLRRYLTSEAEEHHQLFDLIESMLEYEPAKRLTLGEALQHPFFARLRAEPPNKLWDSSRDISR

COc1cc(Nc2nc(C)cc(-c3cnn4nc(OC)ccc34)n2)cc(C(F)(F)F)c1
% of control [1]: 96%

O=C(NOC[C@H](O)CO)c1ccc(F)c(F)c1Nc1ccc(I)cc1F
% of control [2]: 100%

CN(C(=O)c1cnn2cccnc12)c1cc2c(cc1N1CCOCC1)C(=O)N(C[C@@H](F)C(C)(C)O)C2
dTM [3]: -0.6 K

CC[C@@H]1[C@H](F)C(=O)N[C@@H]1COc1nccc2cc(C(N)=O)c(OC)cc12 [ZIMLOVISERTIB]
% of inhibition [4]: 1.12%
% of inhibition [5]: 9.68%

CCC(=O)N1CCN(c2ccc(-n3c(=O)ccc4cnc5ccc(-c6cnc7ccccc7c6)cc5c43)cc2C(F)(F)F)CC1
% of control [6]: 100%

CN(C)C/C=C/C(=O)Nc1ccc(C(=O)N2CCCC(Nc3ncc(Cl)c(-c4c[nH]c5ccccc45)n3)C2)cc1 (stereo unspecified)
% of control [7]: 99%
% of control [8]: 84%

N#Cc1cccc(-c2c[nH]c3ncnc(N4CCOCC4)c23)c1
% of control [9]: 100%
% of inhibition [10]: -5%

CCn1c(-c2nc3cc(C(=O)N4CCCC(N)C4)ccc3n2C)cc2ccccc21 (stereo unspecified)
pXC50 (D(2) dopamine receptor): < 4 M
